Key:
TID mice and NOD mice = conditions: cited from earlier work
[1] = system: anti-GAD65, anti-IA2 and anti-insulin autoantibodies; assay: Anti-GAD65, anti-IA2 and anti-insulin autoantibody ELISA in mouse serum; format: in vivo; conditions: TID mice; treatment with GC7 or anti-DLL4
Procedure: Anti-GAD65, anti-IA2, and anti-insulin autoantibodies were measured in mice serum using
an Anti-GAD65 ELISA kit (Kronus, Star, ID) according to the manufacturer's instructions. Mice anti-insulin antibodies were measured using a mouse insulin autoantibody (IAA) ELISA kit (Abbexa, catalog #abx053161. Abbexa LLC, Houston, TX, United States; with a positive predictive value range between 0.16 and 10 ng/ml). Anti-IA2 autoantibodies were also measured using a human IA2 autoantibody (IA2Ab) ELISA kit (Kronus, Star, ID) following the manufacturers' manual.

[2] = molecular target: T1, deoxyhypusine synthase (DHS) (Homo sapiens, UniProt P49366); conditions: cited from earlier work
T1 sequence (P49366 1-369): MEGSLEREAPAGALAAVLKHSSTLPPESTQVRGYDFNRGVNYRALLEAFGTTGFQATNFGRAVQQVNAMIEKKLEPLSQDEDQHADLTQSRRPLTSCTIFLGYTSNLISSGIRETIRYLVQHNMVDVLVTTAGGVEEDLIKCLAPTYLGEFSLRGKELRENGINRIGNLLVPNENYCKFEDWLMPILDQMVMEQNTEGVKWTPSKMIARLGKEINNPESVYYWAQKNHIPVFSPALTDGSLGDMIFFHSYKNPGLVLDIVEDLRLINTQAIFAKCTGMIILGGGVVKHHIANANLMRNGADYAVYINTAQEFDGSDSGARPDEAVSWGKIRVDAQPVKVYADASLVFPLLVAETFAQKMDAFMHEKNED

[3] = system: CD4, CD8 and CD25 T cells isolated from PLN of TID mice; assay: In vitro co-stimulation / CFSE proliferation of T cells from PLN of TID mice; format: cell-based, mouse
Procedure: Purified CD4, CD8, and CD25 cells were isolated from TID mice using the mice CD4 T Cell Isolation Kit (#130-104-454), CD8a+ T Cell Isolation Kit II (#130-095-236), and CD4+ CD25+ Regulatory T Cell Isolation Kit (Cat no: 130-091-041) following standard protocol. Briefly, after sacrificing the TID mice, pancreatic lymph nodes (PLN) were isolated and single cell suspensions were prepared. Non-CD4 T cells and non-CD8 T cells were isolated using magnetically labeled microbeads. Non-CD4 T cells were retained in the MACS column and non-touch enriched CD4 and CD8 cells were eluted from the column. Simultaneously CD25 positive cells were separated from the CD4 clute with anti-CD25PE microbeads with more than 90% purity. Single cell suspensions of CD4, CD8, and CD25^− T cells were stained with carboxyfluorescein succinimidyl ester (CFSE) to track the induced proliferation. Single cell suspensions of purified CD4, CD8, and CD25 T cells (CFSE-labeled) were co-stimulated with recombinant human GAD65 (rhGAD65) protein ([…]), GC7 (100 mM), anti-DLL4 ([…]), rhGAD65+GC7, rhGAD65+GC7+anti-DLL4, or CD3+CD28 stimulated for 4 days (n=7). CD4 T cells (CFSE-labeled) were further stained with fluorochrome-conjugated antibodies against mouse IL-17(clone 559502, PE), IFNg (clone 554413, APC), and forkhead box P3 (Foxp3) (clone MF23, Alexa Fluor@488, Alexa Fluor@647). In vitro proliferation assays were analyzed by FLOWJO V10 Beta software using fix ratio, fix CV, and fix background from unstimulated cells.

## N=C(N)NCCCCCCCN [GC7, N1-guanyl-1,7-diaminoheptane]
TID mice and NOD mice
  adverse effect in previous in vivo studies: did not reveal any significant adverse effect
[1]
  GAD65 antibody titer: significantly reduced
[2]
  IC50: 0.017 µM
[3]; GC7 (100 mM), 4 days
  Treg population (expression of CD25 and FOXP3 on CD3+ CD4 T cells): significantly enriched
[3]; GC7 (100 mM), CFSE
  replicative index of Treg cells (Treg peak): significant Treg peak
[3]; compared to conventional stimulation with anti-(CD3+CD28)/rhGAD65
  proliferation index of CD8 T cells: not significant

## C/C(=N\NC(=N)N)c1cc(NC(=O)CCCCCCCCC(=O)Nc2cc(/C(C)=N/NC(=N)N)cc(/C(C)=N/NC(=N)N)c2)cc(/C(C)=N/NC(=N)N)c1 [Semapimod]
[2]
  IC50: ~2000 µM
